Assay results reported in patent US11931343B2 (ARCUS BIOSCIENCES, INC., priority 2018, dated 2024).

Molecular target: T1, human CD73 (Homo sapiens, UniProt P21589)
T1 sequence (P21589 27-549): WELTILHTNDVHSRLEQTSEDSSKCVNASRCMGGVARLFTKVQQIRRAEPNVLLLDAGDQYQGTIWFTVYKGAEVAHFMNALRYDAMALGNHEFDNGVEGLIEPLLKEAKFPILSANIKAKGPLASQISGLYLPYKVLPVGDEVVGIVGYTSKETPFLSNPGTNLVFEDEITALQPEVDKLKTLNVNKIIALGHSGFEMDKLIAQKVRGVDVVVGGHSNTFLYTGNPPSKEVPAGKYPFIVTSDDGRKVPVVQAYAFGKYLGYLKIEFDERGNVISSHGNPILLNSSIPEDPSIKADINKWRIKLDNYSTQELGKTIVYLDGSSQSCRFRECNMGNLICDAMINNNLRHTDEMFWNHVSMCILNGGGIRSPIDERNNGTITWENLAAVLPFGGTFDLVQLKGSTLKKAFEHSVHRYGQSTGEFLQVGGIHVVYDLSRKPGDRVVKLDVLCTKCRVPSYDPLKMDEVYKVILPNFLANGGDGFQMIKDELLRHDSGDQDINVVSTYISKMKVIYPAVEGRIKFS
Assay: Inhibition of Ecto-5′-nucleotidase (CD73) activity in CHO-CD73 cells, phosphate release from AMP
Assay type: cell-based
Details: CHO-K1 cells stably transfected with human CD73; 25 μM AMP; 50 minutes, 37° C.; read-out: Potency: CD73 IC50

Clc1cccc(-n2nccc2-c2cc3c(cc2Cl)nnn3-c2ccc3cn[nH]c3c2)c1 [Example 404]
IC50: 0.1 to 1 µM

Cc1nn(-c2ccc3cn[nH]c3c2)c2cc(-c3ccnn3Cc3ccc(C#N)cc3)ncc12 [Example 405]
IC50: 0.1 to 1 µM

Cc1cccc(-n2nccc2-c2cc3c(cc2C)nnn3-c2ccc3cn[nH]c3c2)c1 [Example 406]
IC50: > 1 µM

Cc1cccc(-n2nccc2-c2cnc3c(C)nn(-c4ccc5cn[nH]c5c4)c3c2)c1 [Example 408]
IC50: 0.1 to 1 µM

Cc1ccc(F)c(-n2nccc2-c2cc3c(cn2)nnn3-c2ccc3cn[nH]c3c2)c1 [Example 409]
IC50: > 1 µM

N#Cc1ccc(Cn2nccc2-c2cc(F)c3nnn(-c4ccc5cn[nH]c5c4F)c3c2)cc1 [Example 410]
IC50: 0.1 to 1 µM

Cc1cccc(-n2nccc2-c2cc3c(cc2Cl)nnn3-c2ccc3cn[nH]c3c2)c1 [Example 411]
IC50: 0.1 to 1 µM

CC(c1ccc(C#N)cc1F)n1nccc1-c1cc2c(cc1F)nnn2-c1ccc2cn[nH]c2c1 (stereo not shown) [Example 412]
IC50: 0.1 to 1 µM

Cc1cccc(-n2ncc(Cl)c2-c2cc(F)c3nnn(-c4ccc5cn[nH]c5c4)c3c2)c1 [Example 413]
IC50: 0.1 to 1 µM

Cc1cccc(-n2ncc(C)c2-c2cc(F)c3nnn(-c4ccc5cn[nH]c5c4)c3c2)c1 [Example 416]
IC50: > 1 µM

C=CCNc1nn(-c2ccc3cn[nH]c3c2)c2cc(-c3ccnn3Cc3ccc(C#N)cc3)cnc12 [Example 417]
IC50: > 1 µM

CC(c1ccc(C#N)cc1F)n1nccc1-c1cc(Cl)c2nnn(-c3ccc4[nH]c(=O)[nH]c4c3)c2c1 (stereo not shown) [Example 418]
IC50: 0.1 to 1 µM

N#Cc1ccc(C(CO)n2nccc2-c2cc(F)c3nnn(-c4ccc5cn[nH]c5c4)c3c2)cc1 (stereo not shown) [Example 419]
IC50: 0.1 to 1 µM

N#Cc1ccc(Cn2nccc2-c2cnc3c(NCCO)nn(-c4ccc5cn[nH]c5c4)c3c2)cc1 [Example 420]
IC50: > 1 µM

N#Cc1ccc(Cn2nccc2-c2cc3c(cc2CO)nnn3-c2ccc3cn[nH]c3c2)cc1 [Example 421]
IC50: 0.1 to 1 µM

N#Cc1ccc(Cn2nccc2-c2cnc3c(NCC(O)CO)nn(-c4ccc5cn[nH]c5c4)c3c2)cc1 (stereo not shown) [Example 422]
IC50: > 1 µM

CNc1nn(-c2ccc3cn[nH]c3c2)c2cc(-c3ccnn3Cc3ccc(C#N)cc3)cnc12 [Example 423]
IC50: > 1 µM

CN(C)S(=O)(=O)Nc1nn(-c2ccc3cn[nH]c3c2)c2cc(-c3ccnn3Cc3ccc(C#N)cc3)cnc12 [Example 424]
IC50: > 1 µM

CCNc1nn(-c2ccc3cn[nH]c3c2)c2cc(-c3ccnn3Cc3ccc(C#N)cc3)cnc12 [Example 425]
IC50: > 1 µM
